Results on five compounds are retold here after patent US11400062B2, “Compositions comprising enzyme-cleavable amphetamine prodrugs and inhibitors thereof” (Signature Therapeutics, Inc., priority 2010, dated 2022).

The term Cmax denotes the maximum level reached in the sampled fluid or tissue. What is called Tmax is the time from dosing to the highest level. In general, half-life refers to the time in which the quantity being followed falls by half.

A short description of data set [1]: Pharmacokinetics of prodrug following PO administration to rats. The settings on record: for Cmax / Tmax: male, Sprague Dawley, rat, plasma, po.
A short description of data set [2]: Pharmacokinetics of prodrug following IV administration to rats. The settings on record: for Cmax: male, Sprague Dawley, rat, plasma, iv.
Data set [3] deals with T1, trypsin from bovine pancreas (Bos taurus, UniProt P00760).
T1 sequence (P00760 24-246): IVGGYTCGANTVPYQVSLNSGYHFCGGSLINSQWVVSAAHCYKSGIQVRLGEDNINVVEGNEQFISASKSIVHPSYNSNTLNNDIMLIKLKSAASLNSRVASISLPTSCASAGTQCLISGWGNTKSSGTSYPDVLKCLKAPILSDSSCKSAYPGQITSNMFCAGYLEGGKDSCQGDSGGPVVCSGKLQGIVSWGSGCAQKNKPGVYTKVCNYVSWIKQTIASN
Kind of data set: In vitro trypsin conversion of prodrugs to amphetamine and inhibition by trypsin inhibitor. Conditions: no trypsin inhibitor; 0.761 mM prodrug HCl, 0.0228 mg/ml trypsin, pH 8, 37° C.

For the next data set, the target named is T2, trypsin (Bos taurus, UniProt P00760).
T2 sequence (P00760 24-246): T1 sequence (P00760 24-246)
The data set is described as above. Conditions: bovine, trypsin from bovine pancreas; for half-life at 0.761 mM: pH 8; for half-life: pH 8, with Compound 109 (trypsin inhibitor), 2 uM.

Data set [4] can be described thus: In vivo tolerability in rats (intravenous). Details: species or system rat. Conditions: for dose tolerated by rats: IV. The method, then: (§1) Male naïve Sprague-Dawley rats, 4 per dose, were used in the study. Rats were weighed, and then placed under a heat lamp for 15-20 minutes to dilate the lateral tail veins. […] Before dosing, rats were placed in Broome restrainers and the drug was introduced into one of the tail veins using a syringe and needle. […] Blood samples were collected 5 minutes post-dose via the saphenous vein. The rats were observed up to 24 hours.
as §1
The protocol to assess the IV tolerability of Compound AM-3 (lisdexamphetamine) was as described in Examples 9 and 13 above.

Where [5] appears, read: rat plasma, AM-4 PO 24 mg/kg (63 μmol/kg).

On to “Amphetamine-arginine-N-methyl [Compound AM-4]”, for which, in data set [1] (setting [5]), the “AMP Cmax ± sd” value turned out to be 1.92 ± 0.20 ng/mL and the “AMP Tmax ± sd” value was 1.00 ± 0.0 h. In data set [2] (rat plasma, AM-4 IV 4.5 mg/kg (12 μmol/kg)), the “AMP Cmax ± sd” value came out at 17.9 ± 3.5 ng/mL.

Turning to `CC(=O)N[C@@H](CCCNC(=N)N)C(=O)N[C@@H](C)Cc1ccccc1` (stereo in doubt) [Compound AM-1, 2-acetylamino-5-guanidino-pentanoic acid ((R)-1-methyl-2-phenyl-ethyl)-amide], in data set [1] (24 mg/kg), the Cmax came to 1.28 ± 0.81 ng/mL and the Tmax was 0.625 ± 0.43 h. In addition, in data set [3], the “Rate of AMP formation, Ave ± sd” value is listed as 0.0455 ± 0.0102 umols/h/UBAEE. Further, at trypsin, the half-life at 0.761 mM is 39.9 ± 0.5 h and the half-life was 54 ± 4.6 h. Moreover, in data set [2] (5 mg/kg), the Cmax worked out at 3250 ± 310 ng/mL. In addition, the “time to recover to normal activity” value in data set [4] (AM-1 IV 87 μmol/kg) was no more than 2 min. For the same compound, the “dose tolerated by rats” value in data set [4] was 87 µmol/kg.

With `C[C@@H](Cc1ccccc1)NC(=O)[C@@H](N)CCCCN` [Compound AM-3, lisdexamphetamine, reference compound], in data set [1] (22 mg/kg), the Cmax turned out to be 357 ng/mL and the Tmax was found to be 0.625 ± 0.25 h. In data set [3], the “Rate of AMP formation, Ave ± sd” value is “not detectable”. In addition, on trypsin, the half-life at 0.761 mM is 112 ± 14 h and the half-life is 393 ± 431 h. In addition, the Cmax in data set [2] (4.5 mg/kg) was determined as 1670 ± 580 ng/mL. For the same compound, the “time to recover to normal activity” value in data set [4] (AM-3 IV 48 μmol/kg) is no more than 120 min. Further, the “death of the rats” value in data set [4] (AM-3 IV 95 μmol/kg) amounted to 50%. In data set [4] (AM-3 IV 95 μmol/kg and 190 μmol/kg), the time to death result is “less than 1 min”. Besides, the “death of the rats” value in data set [4] (AM-3 IV 190 μmol/kg) was 100%. Further, in data set [4] (AM-3 IV 64 mg/kg (190 μmol/kg), 1 rat), the Clinical observations result was “Died 10 sec post dose”. In addition, the “dose tolerated by rats” value in data set [4] is 48 µmol/kg.

Turning to `C[C@@H](Cc1ccccc1)NC(=O)[C@H](CCCNC(=N)N)NC(=O)CC(=O)O` [Compound AM-2, N-[4-guanidino-1-((R)-1-methyl-2-phenyl-ethylcarbamoyl)-butyl]-malonic acid], in data set [1] (27 mg/kg), the Cmax was 811 ± 850 ng/mL and the Tmax worked out at 0.625 ± 0.25 h. Moreover, in data set [3], the “Rate of AMP formation, Ave ± sd” value is on record as 0.0310 ± 0.0004 umols/h/UBAEE. Further, at trypsin, the half-life at 0.761 mM is 59.9 ± 17.1 h and the half-life is 68.5 ± 16.4 h. The Cmax in data set [2] (6 mg/kg) stood at 2600 ± 260 ng/mL. Besides, the “time to recover to normal activity” value in data set [4] (AM-2 IV 155 μmol/kg) was no more than 30 min. For the same compound, in data set [4], the “dose tolerated by rats” value was 155 µmol/kg.

In the case of `CC(=O)N[C@@H](CCCCN)C(=O)N[C@@H](C)Cc1ccccc1` [Compound AM-5, Amphetamine-lysine-acetate], the Cmax in data set [2] (4.5 mg/kg) worked out at 2150 ± 1700 ng/mL.
